These results are taken from US6545127B1, “Catalytically active recombinant memapsin and methods of use thereof” (Oklahoma Medical Research Foundation, priority 1999, dated 2003).

Assay [1] has as its system memapsin 2 (M2) cleavage of APP in HeLa cells. Kind of assay: APP beta-secretase site cleavage in HeLa cells co-transfected with APP and M2 (pulse-chase, immunoprecipitation, SDS-PAGE). Format: cell-based, human. Particulars: HeLa cells co-transfected with APP and M2, inhibitor included in the media.
Assay [2] deals with T1, recombinant memapsin 2 (Homo sapiens, UniProt P56817). Put plainly: Value. Set-up: expressed in E. coli in two different lengths, both without the transmembrane region; 15 N-terminal residues from vector pET11a (T7 protein leader) (N); made in house; host or cells: E. coli BL21 (DE3). The procedure:
Table printed on a drawing sheet, FIG. 4A
Footnotes: [Mep2] = 0.47 µM / [Fluo. Substrate] = 29.9 µM / Buffer: Na Acetate 0.1 M, 5% DMSO, pH 4.5 at 37°C / Excitation at 350 nm / Emission at 490 nm
The patent's description of the figure: FIG. 4A is a graph of the inhibition of recombinant memapsin 2 by OM99-1.
First copying reader's note: Fit parameter (Ki) of the inhibition curve of memapsin 2 by OM99-1 plotted above the table; no unit is printed for Ki, and the plot's concentration axis is in M.
Where the first naming reader finds the target: description_of_the_figure: FIG. 4A is a graph of the inhibition of recombinant memapsin 2 by OM99-1.
Target sequence in this assay (P56817 46-457): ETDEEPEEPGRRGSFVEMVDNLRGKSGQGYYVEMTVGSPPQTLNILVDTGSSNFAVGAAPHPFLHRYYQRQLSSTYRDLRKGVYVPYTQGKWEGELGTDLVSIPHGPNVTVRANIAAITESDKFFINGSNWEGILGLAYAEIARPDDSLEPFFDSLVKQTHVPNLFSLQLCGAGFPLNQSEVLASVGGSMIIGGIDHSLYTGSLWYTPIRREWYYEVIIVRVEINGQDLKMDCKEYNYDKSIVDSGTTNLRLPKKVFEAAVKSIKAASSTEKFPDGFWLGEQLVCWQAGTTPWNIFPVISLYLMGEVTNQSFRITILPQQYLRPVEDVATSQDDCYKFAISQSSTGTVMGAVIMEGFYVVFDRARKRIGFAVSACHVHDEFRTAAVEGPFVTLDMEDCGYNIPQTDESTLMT

In assay [3] the target is T1, recombinant memapsin 2. Put plainly: Inhibition of recombinant memapsin 2, synthetic fluorogenic peptide substrate. It counts as biochemical. Particulars: recombinant memapsin 2, synthetic fluorogenic peptide substrate (FIG. 4A/4B).
Target sequence in this assay (P56817 46-457 limits assumed): as the sequence (P56817 46-457) above
Excerpt: The substrate used was a synthetic fluorogenic peptide substrate.
In assay [4] the target is T2, M2pd (Homo sapiens, UniProt P56817).
T2 construct: 15 N-terminal residues from vector pET11a (T7 protein leader) (N, cleaved yes); made in house
Put plainly: Inhibition of M2pd by pepstatin A. Format: biochemical.

The target in assay [5] is T2, M2pd. Kind of assay: Steady-state kinetics of hydrolysis of peptide substrates by M2pd. Particulars: peptide substrate hydrolysed by M2pd, pH 4.0. Format: biochemical. The procedure:
Incubation in 0.1M sodium acetate, pH 4.0, for 16 h at 22° C. auto-catalytically converted pro-M2pd to M2pd . For initial hydrolysis tests, two synthetic peptides were separately incubated with pro-M2pd in 0.1M Na acetate, pH 4.0 for different periods ranging from 2 to 18 h. The incubated samples were subjected to LC/MS for the identification of the hydrolytic products. For kinetic studies, the identified HPLC (Beckman System Gold) product peaks were integrated for quantitation. The Km and kcat values for presenilin 1 and Swedish APP peptides (Table 1) were measured by steady-state kinetics. The individual Km and Kcat values for APP peptide could not be measured accurately by standard methods, so its kcat/Km value was measured by competitive hydrolysis of mixed substrates against presenilin 1 peptide (Fersht, A. “Enzyme Structure and Mechanism”, 2nd Ed., W. H. Freeman and Company, New York. (1985)).

Non-standard residues stand in square brackets, D forms with d. Residues, ends and D or L forms follow the SMILES beside them. No end group written: not given here. *: point of attachment. Sta = CC(C)C[C@H](N)[C@@H](O)CC(=O)O; Isovaleryl = CC(C)CC(=O)*

T2 sequence (P56817 14-419 limits assumed): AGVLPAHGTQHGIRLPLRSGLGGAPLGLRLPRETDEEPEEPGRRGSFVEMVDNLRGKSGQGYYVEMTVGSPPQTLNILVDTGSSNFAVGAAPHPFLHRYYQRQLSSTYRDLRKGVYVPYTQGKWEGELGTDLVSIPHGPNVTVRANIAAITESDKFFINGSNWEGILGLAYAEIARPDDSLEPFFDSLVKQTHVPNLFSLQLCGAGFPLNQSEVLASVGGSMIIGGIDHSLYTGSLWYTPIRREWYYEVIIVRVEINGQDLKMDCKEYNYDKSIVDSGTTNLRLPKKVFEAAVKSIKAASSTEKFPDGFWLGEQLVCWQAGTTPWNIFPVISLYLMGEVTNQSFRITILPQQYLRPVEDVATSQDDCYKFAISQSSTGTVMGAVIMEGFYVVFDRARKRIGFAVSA

With `CO/C1=C\C(C)=C\[C@@H](C)[C@@H](O)[C@@H](C)C/C(C)=C/C=C/[C@H](OC)[C@@H]([C@@H](C)[C@@H](O)[C@H](C)[C@@]2(O)C[C@@H](O)[C@H](C)[C@@H](C(C)C)O2)OC1=O` [Bafilomycin A1], the “production of APP beta N- and beta C-fragments” value in assay [1] is reported as “abolished the production of both APP fragments”. For `CC(C)C[C@H](NC(=O)[C@H](CC(N)=O)NC(=O)[C@@H](N)C(C)C)[C@@H](O)C[C@@H](C)C(=O)N[C@@H](C)C(=O)N[C@@H](CCC(=O)O)C(=O)N[C@@H](Cc1ccccc1)C(=O)O` [OM99-1, Val-Asn-Leu*Ala-Ala-Glu-Phe] (HELM PEPTIDE1{V.N.[CC(C)C[C@H](N[*:1])[C@@H](O)C[C@@H](C)C(=O)[*:2]].A.E.F}$$$$V2.0), the Ki at recombinant memapsin 2 [2] was determined as 68.4 nM; on recombinant memapsin 2 [3], 30 nM. For `CC(C)CC(=O)N[C@H](C(=O)N[C@H](C(=O)N[C@@H](CC(C)C)[C@@H](O)CC(=O)N[C@@H](C)C(=O)N[C@@H](CC(C)C)[C@@H](O)CC(=O)O)C(C)C)C(C)C` [Pepstatin A] (Isovaleryl-VV[Sta]A[Sta]-OH), the 50% inhibitory concentration (IC50) at M2pd [4] is ~300000 nM. In the case of “SEVNLDAEFR [Swedish APP peptide, SEVNL/DAEFR]”, the Km on M2pd [5] came out at 1 mM.

As to “SVNM/AEGD (SVNMAEGD) [presenilin 1, substrate peptide derived from the processing site of presenilin 1]”, in the assay with M2pd [5], the Michaelis-Menten constant (Km) worked out at 15.2 mM and the kcat turned out to be 0.67 s⁻¹.
